Data reported in PMC4912218, “Targeted metabolomics of Gammarus pulex following controlled exposures to selected pharmaceuticals in water” (The Science of the Total Environment, 2016).

Tested on: Gammarus pulex
Experiment: Targeted metabolite profiling (LC-HRMS) of G. pulex after exposure at NOAEL and LOAEL
Type: in vivo
Protocol: Approximately 100 specimens were introduced in a tank containing 1 L of AFW (control), 1 L of AFW spiked with C1 and 1 L of AFW with C2. At three different times (2, 6 and 24 h), 4 replicates of live G. pulex (a pool of 6–7 animals for each replicate) were collected, frozen on dry ice and then stored at − 80 °C before metabolite profiling was performed.
Quantification of pharmaceutical concentrations in G. pulex at the 24 h exposure interval was performed. Separate exposures were set up in triplicate in beakers containing 200 mL of exposure solution (AFW spiked with the respective C1 pharmaceutical dose) and 20 organisms. At 24 h, animals were immediately rinsed with ultra-pure water and then frozen at − 20 °C for 24 h. […] Prior to extraction, frozen G. pulex samples were lyophilised at − 50 °C under vacuum for 48 h and milled in an agate mortar to a fine powder. For each analysis, 20 mg of a lyophilised composite sample were transferred to 2 mL polypropylene tubes (Eppendorf®, Hamburg, Germany), for solid-liquid extraction (SLE). […] Then, samples were shaken for 25 min on a vibration plate (IKA® KS 260 basic) and centrifuged at 14,000 rpm for 25 min at 0 °C. Finally, the supernatant was transferred to a chromatographic vial by using a […] syringe filter (Whatman, GE Healthcare Life Sciences, Buckinghamshire, UK). All samples were stored at − 80 °C until LC-HRMS analysis.
Briefly, 50 mg of lyophilised G. pulex were extracted in 5 mL of acetonitrile and pre-concentrated on Oasis HLB SPE cartridges (6 mL, 200 mg sorbent). The extract was eluted, dried-down and reconstituted in starting LC mobile phase. […] Organic acids, nucleosides, nucleotides, sugars and AAs were measured using LC–HRMS. An Exactive™ mass spectrometer equipped with heated electrospray ionization (H-ESI) source was used (Thermo Fisher Scientific, Bremen, Germany). The system was equipped with a HTC PAL autosampler and a Surveyor MS Plus pump. A TSK Gel-Amide 80 column (2 × 250 mm, 5 μm) for analyte separation was purchased from Sigma Aldrich. Mobile phases were binary mixtures of acetonitrile (A) and 5 mM ammonium acetate (pH 5) in HPLC-grade water (B). […] The flow rate was set at 150 μL min^− 1 and the injection volume was 5 μL. […] Full scan acquisition over a mass range of 80–800 Da was performed at 70,000 full width at half maximum (FWHM) and spray voltage at 3.00 kV, capillary voltage at 30 V, skimmer voltage at 28 V and tube lens voltage at 130 V were used. A sheath gas flow rate of 45 arbitrary units (au), an auxiliary gas flow rate of 10 au and a capillary temperature at 300 °C were selected.
Here, pharmaceutical residue quantification in exposed G. pulex was performed by a 3-point matrix-matched calibration curve. […] The algal amino acid mixture-^13C,^15N (see Table 1) was used as internal standard (IS) for extraction and analytical control. L-ornithine hydrochloride, inosine, thymidine, taurine, 1.7-dimethylxanthine and (−)-riboflavin were quantified using either ^13C,^15N-proline or ^13C,^15N-tyrosine as the internal standard. The remaining 15 compounds were quantified using external calibration and the target compound itself was used as external standard. […] The method detection limit (MDL) was calculated following the same procedure, using spiked lyophilised G. pulex samples at a concentration of 1 μg g^− 1. Intra-assay variation was assessed using five consecutive injections of 5 ng μL^− 1 standard solution, and inter-assay variation was determined by measuring the same standard solution on four different days. […] Recovery studies were performed in triplicate, using lyophilised G. pulex samples spiked at 1 μg g^− 1 with the metabolites mixture and the algal amino acid mixture-^13C, ^15N.

Oc1cc(Cl)ccc1Oc1ccc(Cl)cc1Cl [Triclosan]
(-)-Riboflavin concentration in G. pulex (6h, C2= 0.3 mg/L): 2.6 ± 0.3 µg/g
ADP concentration in G. pulex (6h, C2= 0.3 mg/L): 28.2 ± 0.3 µg/g
Cytidine concentration in G. pulex (6h, C2= 0.3 mg/L): 19 ± 7 µg/g
Hypoxanthine concentration in G. pulex (6h, C2= 0.3 mg/L): 74 ± 18 µg/g
Inosine concentration in G. pulex (6h, C2= 0.3 mg/L): 23098 ± 627 µg/g
L-2-amino-n-butyric concentration in G. pulex (6h, C2= 0.3 mg/L): 19.8 ± 2 µg/g
L-(-)-Proline concentration in G. pulex (6h, C2= 0.3 mg/L): 246 ± 4 µg/g
L-Alanine concentration in G. pulex (6h, C2= 0.3 mg/L): 784 ± 31 µg/g
L-Citrulline concentration in G. pulex (6h, C2= 0.3 mg/L): 12.3 ± 1 µg/g
L-Isoleucine concentration in G. pulex (6h, C2= 0.3 mg/L): 1561 ± 147 µg/g
L-Leucine concentration in G. pulex (6h, C2= 0.3 mg/L): 353 ± 4 µg/g
L-Methionine concentration in G. pulex (6h, C2= 0.3 mg/L): 4.6 ± 0.8 µg/g
L-Phenylalanine concentration in G. pulex (6h, C2= 0.3 mg/L): 233 ± 5 µg/g
L-Serine concentration in G. pulex (6h, C2= 0.3 mg/L): 168 ± 2 µg/g
L-Threonine concentration in G. pulex (6h, C2= 0.3 mg/L): 486 ± 8 µg/g
L-Tryptophan concentration in G. pulex (6h, C2= 0.3 mg/L): 134 ± 10 µg/g
L-Tyrosine concentration in G. pulex (6h, C2= 0.3 mg/L): 234 ± 2 µg/g
L-Valine concentration in G. pulex (6h, C2= 0.3 mg/L): 299 ± 18 µg/g
L-aspartic acid concentration in G. pulex (6h, C2= 0.3 mg/L): 36.1 ± 6 µg/g
NADH concentration in G. pulex (6h, C2= 0.3 mg/L): 8.1 ± 0.8 µg/g
Taurine concentration in G. pulex (6h, C2= 0.3 mg/L): 8484 ± 60 µg/g
Thymidine concentration in G. pulex (6h, C2= 0.3 mg/L): 1163 ± 130 µg/g
Trehalose concentration in G. pulex (6h, C2= 0.3 mg/L): 251 ± 4 µg/g
Uridine concentration in G. pulex (6h, C2= 0.3 mg/L): 533 ± 28 µg/g
(-)-Riboflavin concentration in G. pulex (24h, C1= 0.1 mg/L): 2.4 ± 2 µg/g
ADP concentration in G. pulex (24h, C1= 0.1 mg/L): 18.7 ± 1 µg/g
Cytidine concentration in G. pulex (24h, C1= 0.1 mg/L): 19 ± 3 µg/g
Hypoxanthine concentration in G. pulex (24h, C1= 0.1 mg/L): 95 ± 27 µg/g
Inosine concentration in G. pulex (24h, C1= 0.1 mg/L): 18957 ± 5084 µg/g
L-2-amino-n-butyric concentration in G. pulex (24h, C1= 0.1 mg/L): 16.8 ± 5 µg/g
L-(-)-Proline concentration in G. pulex (24h, C1= 0.1 mg/L): 293 ± 13 µg/g
L-Alanine concentration in G. pulex (24h, C1= 0.1 mg/L): 810 ± 110 µg/g
L-Citrulline concentration in G. pulex (24h, C1= 0.1 mg/L): 8.3 ± 0.5 µg/g
L-Isoleucine concentration in G. pulex (24h, C1= 0.1 mg/L): 1743 ± 224 µg/g
L-Leucine concentration in G. pulex (24h, C1= 0.1 mg/L): 376 ± 13 µg/g
L-Methionine concentration in G. pulex (24h, C1= 0.1 mg/L): 7.0 ± 0.3 µg/g
L-Phenylalanine concentration in G. pulex (24h, C1= 0.1 mg/L): 260 ± 6 µg/g
L-Serine concentration in G. pulex (24h, C1= 0.1 mg/L): 120 ± 12 µg/g
L-Threonine concentration in G. pulex (24h, C1= 0.1 mg/L): 600 ± 20 µg/g
L-Tryptophan concentration in G. pulex (24h, C1= 0.1 mg/L): 72 ± 8 µg/g
L-Tyrosine concentration in G. pulex (24h, C1= 0.1 mg/L): 307 ± 4 µg/g
L-Valine concentration in G. pulex (24h, C1= 0.1 mg/L): 398 ± 17 µg/g
L-aspartic acid concentration in G. pulex (24h, C1= 0.1 mg/L): 82.5 ± 26 µg/g
NADH concentration in G. pulex (24h, C1= 0.1 mg/L): 7.7 ± 0.1 µg/g
Taurine concentration in G. pulex (24h, C1= 0.1 mg/L): 12433 ± 2122 µg/g
Thymidine concentration in G. pulex (24h, C1= 0.1 mg/L): 1718 ± 19 µg/g
Trehalose concentration in G. pulex (24h, C1= 0.1 mg/L): 251 ± 22 µg/g
Uridine concentration in G. pulex (24h, C1= 0.1 mg/L): 644 ± 77 µg/g
(-)-Riboflavin concentration in G. pulex (24h, C2= 0.3 mg/L): 2.6 ± 0.8 µg/g
ADP concentration in G. pulex (24h, C2= 0.3 mg/L): 29.3 ± 0.8 µg/g
Cytidine concentration in G. pulex (24h, C2= 0.3 mg/L): 16 ± 3 µg/g
Hypoxanthine concentration in G. pulex (24h, C2= 0.3 mg/L): 53 ± 10 µg/g
Inosine concentration in G. pulex (24h, C2= 0.3 mg/L): 36017 ± 80 µg/g
L-2-amino-n-butyric concentration in G. pulex (24h, C2= 0.3 mg/L): 21.5 ± 2 µg/g
L-(-)-Proline concentration in G. pulex (24h, C2= 0.3 mg/L): 207 ± 3 µg/g
L-Alanine concentration in G. pulex (24h, C2= 0.3 mg/L): 673 ± 17 µg/g
L-Citrulline concentration in G. pulex (24h, C2= 0.3 mg/L): 13.8 ± 2 µg/g
L-Isoleucine concentration in G. pulex (24h, C2= 0.3 mg/L): 1164 ± 39 µg/g
L-Leucine concentration in G. pulex (24h, C2= 0.3 mg/L): 299 ± 0.7 µg/g
L-Methionine concentration in G. pulex (24h, C2= 0.3 mg/L): 3.1 ± 0.9 µg/g
L-Phenylalanine concentration in G. pulex (24h, C2= 0.3 mg/L): 134 ± 0.5 µg/g
L-Serine concentration in G. pulex (24h, C2= 0.3 mg/L): 167 ± 15 µg/g
L-Threonine concentration in G. pulex (24h, C2= 0.3 mg/L): 440 ± 11 µg/g
L-Tryptophan concentration in G. pulex (24h, C2= 0.3 mg/L): 115 ± 8 µg/g
L-Tyrosine concentration in G. pulex (24h, C2= 0.3 mg/L): 224 ± 1 µg/g
L-Valine concentration in G. pulex (24h, C2= 0.3 mg/L): 250 ± 3 µg/g
L-aspartic acid concentration in G. pulex (24h, C2= 0.3 mg/L): 33.9 ± 11 µg/g
NADH concentration in G. pulex (24h, C2= 0.3 mg/L): 9.9 ± 0.3 µg/g
Taurine concentration in G. pulex (24h, C2= 0.3 mg/L): 8468 ± 142 µg/g
Thymidine concentration in G. pulex (24h, C2= 0.3 mg/L): 396 ± 12 µg/g
Trehalose concentration in G. pulex (24h, C2= 0.3 mg/L): 378 ± 17 µg/g
Uridine concentration in G. pulex (24h, C2= 0.3 mg/L): 574 ± 15 µg/g
